In the experiment the target is Transcription factor p65 (Mus musculus) (UniProt Q04207). As to the kind of experiment: Inhibition of TNFalpha/IL-1beta-induced NFkB p65 translocation from cytosol to nucleus in mouse MIN6 cells at 50 uM after 30 mins by immunofluorescence based high content imaging analysis. Type of experiment: cell-based.

Each structure is given as a SMILES string. The source made the active and inactive calls. The calls are words filed in the database; no cut-off is given here.

Transcription factor p65 (Mus musculus), sequence (Q04207 whole entry): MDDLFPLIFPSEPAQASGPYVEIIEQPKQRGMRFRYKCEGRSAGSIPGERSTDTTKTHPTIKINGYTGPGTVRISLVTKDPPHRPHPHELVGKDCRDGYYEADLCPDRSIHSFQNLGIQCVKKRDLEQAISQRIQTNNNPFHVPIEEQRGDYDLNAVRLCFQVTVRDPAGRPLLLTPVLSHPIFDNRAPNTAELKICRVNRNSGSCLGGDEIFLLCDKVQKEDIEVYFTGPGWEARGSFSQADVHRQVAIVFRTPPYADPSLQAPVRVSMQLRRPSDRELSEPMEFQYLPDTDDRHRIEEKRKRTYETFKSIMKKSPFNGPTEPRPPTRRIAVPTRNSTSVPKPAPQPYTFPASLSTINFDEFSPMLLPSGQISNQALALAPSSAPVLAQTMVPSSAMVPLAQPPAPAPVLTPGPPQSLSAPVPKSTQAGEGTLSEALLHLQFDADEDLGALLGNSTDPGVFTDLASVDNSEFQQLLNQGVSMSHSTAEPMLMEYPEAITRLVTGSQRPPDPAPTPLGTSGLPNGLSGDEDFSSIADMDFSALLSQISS

For `COc1cc(O)cc(O)c1C(=O)/C=C/c1ccc(O)cc1`, the inhibition result was “Active”.

The values are drawn from ChEMBL document CHEMBL4330156, “Amides and Flavonoids from the Fruit and Leaf Extracts of Melodorum siamensis” (J Nat Prod, 2019).
